From patent US8420614B2, “Compositions and methods for inhibiting or reversing fibrotic disorders” (Albany Medical College, priority 2007, dated 2013)

Columns and labels:
Type in all cases: cell-based, human
NADF [1] = test: Floating collagen lattice contraction, NADF; details: TGF-β1 10 ng/ml; floating collagen lattice three days
Procedure: (§1) Before preparing the gels, 5 ml of BSA (Sigma) solution (0.1% BSA in PBS, filter sterilized) was pipetted into each well of a six-well plate, incubated at 37° C. for 1 hour. 1.4 ml of bovine dermal collagen Vitrogen (Cohesion, Palo Alto, Calif.) was mixed with 0.4 ml of 5×DMEM in a 15 ml centrifuge tube cooled on ice. The pH was adjusted to a range of 7.2-7.5, using a sterile solution of 1N NaOH. The control and modified cells were trypsinized from a confluent tissue culture plate and 0.2 ml of the cell suspension (containing 5×10^5 cells) was added to the collagen solution, gently mixed and poured into a well of the six-well plate. Collagen lattices were allowed to gel for 60 minutes in a 5% CO2 atmosphere at 37° C. After 60 minutes, the collagen lattices were detached from the surface of the well by rimming the lattice with a sterile spatula and gently swirling the six-well plate. 2 ml of serum-free medium was added to each well. Plates were incubated in a 5% CO2 atmosphere at 37° C. To measure contraction, the tissue culture dishes were periodically placed on top of a transparent metric ruler on an opaque background, and the diameters of the lattices were recorded.

SMCA in NADF = test: SMCA expression (western blot, immunostaining), NADF; details: TGF-β1 10 ng/ml
Procedure: (§2) NADF and HTSF lysates were analyzed for protein expression by western blotting with the following primary antibodies at a concentration of 1:1000: cyclin D1, (BD-Biosciences; DCS-6, San Jose, Calif.), cyclin A, (Santa Cruz Biotech.; H 432, Santa Cruz, Calif.), p21^cip1 (BD-Biosciences; sx-118, San Jose, Calif.), p15^ink4b (Cell Signaling, Danvers, Mass.), Hic-5 (BD Transduction, Franklin Lakes, N.J.), RhoGDI (Santa Cruz Biotech, Santa Cruz, Calif.), H2A (Cell Signaling, Danvers, Mass.) and ERK½ (Santa Cruz Biotech, Santa Cruz, Calif.), Vinculin (Sigma Aldrich), SMCA (Sigma Aldrich), FN (Neomarkers), Collagen type I (Sigma Aldrich), Paxillin (Sigma Aldrich). Western blots were developed using SuperSignal chemiluminescent substrate (Pierce, Rockford, Ill.) and quantitated with a Fluor-S MultiImager and Quantity-One software (Bio-Rad, Hercules, Calif.). Membranes were stripped using Restore Stripping (Pierce, Rockford, Ill.) and reprobed (no more than once) with other antibodies.
(§3) Cells were stained as previously described (Dabiri et al., 2006), with slight modification. Control or modified cells were cultured at 30% confluency in complete medium for 18 hours, then washed with Dulbecco's phosphate-buffered saline and serum-free medium was added, followed by 10 ng/ml of TGF-β1 or 20 ng/ml of anti-TGF-β1 (R&D Systems, Minneapolis, Minn.) where specified. […]

Hic-5 = test: Western blot of Hic-5 expression, NADF; details: TGF-β1 10 ng/ml
Procedure: as §2
Either NADF (5×10^3 cells) or HTSF (5×10^3 cells) were cultured in DMEM plus serum for 24 hrs with either TGF-β1 (10 ng/ml) or anti-TGF-β1 (20 μg/ml) where indicated. […] Protein expression was analyzed by western blot, as described above. […]

[2] = system: supermature focal adhesions in NADF; test: Focal adhesion measurements, NADF; details: TGF-β1 10 ng/ml for 5 days
Procedure: Cells were stained as previously described (Dabiri et al., 2006), with slight modification. Control or modified cells were cultured at 30% confluency in complete medium for 18 hours, then washed with Dulbecco's phosphate-buffered saline and serum-free medium was added, followed by 10 ng/ml of TGF-β1 or 20 ng/ml of anti-TGF-β1 (R&D Systems, Minneapolis, Minn.) where specified. Cells were allowed to incubate for 5 days. On the fifth day, cells were washed fixed, permeabilized, and blocked for 1 hour. Samples were then incubated sequentially with mAb against vinculin (1:400) (Sigma Chemical Co., St Louis, Mo.), and then with a mixture of goat anti-mouse Alexa Fluor 488 (1:1000) and TRITC-conjugated phalloidin (1:100). […] Images were captured with attached Cooke Sensicam digital camera and deconvolved using Slidebook 3.0.10.3 software (FFTW licensed from Massachusetts Institute of Technology, Cambridge, Mass.).
Focal adhesion measurements were performed as described previously (Dabiri et al., 2006). In brief, cells (n=20) were chosen that were not in contact with any other cell and were well spread. Images were observed using Olympus BX60 microscope equipped with an immersion oil objective (×60/1.25, phase) and captured as described above. Vinculin staining was measured for area (μm^2) of focal adhesion using Image Pro-Plus version 4.5.1.26 (Media Cybermatic, Silver Spring, Md.). […]

HTSF [3] = test: CyQUANT cell growth, HTSF; details: serum-containing media; anti-TGF-β 20 μg/ml or TGF-β1 10 ng/ml
Procedure: (§4) All cells used in these studies were cultured (37° C., 5% CO2.) in serum-containing media which consisted of Dulbecco's modification of Eagle's Minimum Essential Medium, 10% fetal bovine serum and 1% penicillin-streptomycin (all of which were obtained from Gibco Invitrogen Corporation, Carlsbad, Calif.). NADF were purchased from Clonetics-Cambrex BioScience (Walkersville, Md.). HTSF were isolated from biopsies taken from hypertrophic scars resected therapeutically from pediatric patients at Shriner's Burn Hospital and Massachusetts General Hospital, (Boston, Mass.). Tissue was processed according to the protocol of Ronnov-Jessen and Peterson (1993) and as described in (Dabiri et al., 2006). All tissues were acquired anonymously under protocols approved by the relevant medical and ethical committees of the Shriner's Burn Center in accordance with the Declaration of Helsinki Principles and patients gave their written, informed consent.
(§5) Cell growth was measured using CyQUANT® Cell Proliferation Assay Kit (C-7026, Invitrogen, Carlsbad, Calif.). […] Plates were read on Spectra Max Gemini-EM (Molecular Devices, Sunnyvale, Calif.) with an excitation and emission spectrum 480 nm and 520 nm, respectively.

SMCA in HTSF = test: SMCA expression (western blot, immunostaining), HTSF; details: TGF-β1 10 ng/ml, 5 days
Procedure: as §2, §3

NADF [4] = test: BrdU incorporation, NADF; details: 24 h BrdU pulse; TGF-β1 10 ng/ml
Procedure: HTSF (5×10^3 cells) or NADF (5×10^3 cells) were plated in serum free media (Dulbecco's […] 1:1, Hams F12 1:1, transferrin 5 μg/ml, insulin 5×10^−7M, ascorbate 0.2 mM, glutamine 1:100, penicillin-streptomycin 1:100) for 18 hrs in Labtek™ chambers (Nalge Nunc International, Naperville, Ill.) at 37° C. Cells were washed three times with Dulbecco's phosphate buffered saline (DPBS) (Gibco Invitrogen International, Carlsbad, Calif.) and to each well DMEM containing serum was added, 10 μg/ml of BrdU (Biodesign International, Saco, Me.), with or without the addition of 10 ng/ml of TGFβ1. In some wells anti-TGF-β (20 μg/ml) was also added as indicated. Cells were incubated (24 hrs), washed with DPBS, fixed with 3.7% formaldehyde (Sigma Chemical Co., St. Louis, Mo.) in DPBS (10 min), permeabilized with 0.5% Triton X-100 (5 min) (Sigma Chemical Co., St. Louis, Mo.), blocked (1 hr) with 2% bovine serum albumin (Sigma Chemical Co., St. Louis, Mo.) in PBS then DNAase (Promega, Madison, Wis.) treated for 30 min. […] Coverslips were mounted in Gelmount (Biomedia Corp., Biomedia Corp., Foster City, Calif.) and slides were analyzed on an Olympus BX60 microscope using 10× objective. […] The percent positive BrdU incorporation was determined by dividing the number of nuclei labeled with both BrdU (green) and Hoescht (blue) by the total number of nuclei (blue)×100.

[5] = system: cyclin A, cyclin D1, p21^cip1, p15^ink4b in NADF; test: Western blot of cell cycle proteins, NADF
Procedure: as §2

[6] = system: collagen type I and FN in NADF; test: Western blot of ECM proteins, NADF; details: TGF-β1 10 ng/ml, 5 days
Procedure: as §2

NADF [7] = test: CyQUANT cell growth, NADF; details: serum-containing media; anti-TGF-β 20 μg/ml or TGF-β1 10 ng/ml
Procedure: as §4, §5

HTSF [8] = test: Floating collagen lattice contraction, HTSF; details: TGF-β1 10 ng/ml added to Hic-5 siRNA treated HTSF
Procedure: as §1

TGF-β1: recombinant, active TGF-β1 added exogenously (R&D Systems)
decrease in collagen diameter by NADF (NADF [1]): 3 fold
increase in percent positive SMCA cells in NADF (SMCA in NADF; 5 days): 7 fold
expression of SMCA and Hic-5 in NADF (SMCA in NADF; serum free media five days): both SMCA and Hic-5 were upregulated
expression of Hic-5 in NADF (Hic-5; 24 h): significantly increased the expression of Hic-5
expression of Hic-5 in the nucleus in NADF (Hic-5; subcellular fractionation): significantly increased the expression of Hic-5 in the nucleus
increase in the percentage of focal adhesions greater than 6 μm^2 in NADF [2]: ~10 fold
HTSF proliferation (increase in cell number by day 3) (HTSF [3]): did not significantly alter the growth
increase in the percentage of positive SMCA cells in HTSF in which Hic-5 was genetically ablated (SMCA in HTSF): 5 fold
percent BrdU positive nuclei in NADF (NADF [4]): statistically significant decrease in the percent positive nuclei
cyclin A and cyclin D1 levels in NADF ([5]; 24 h, TGF-β1 10 ng/ml): decreased cyclin A and cyclin D1 levels
increase in p15^ink4b level in NADF compared to NADF without TGF-β1 ([5]; 24 h, TGF-β1 10 ng/ml): 5.25 fold
increase in p21^cip1 level in NADF compared to NADF without TGF-β1 ([5]; 24 h, TGF-β1 10 ng/ml): 2.5 fold
increase in expression of p15^ink4b in NADF ([5]; siRNA experiment, TGF-β1 10 ng/ml for 24 hrs, unaffected by knockdown of Hic-5): 4 fold
expression of collagen and FN in NADF [6]: significantly increased the expression of these ECM proteins
NADF proliferation (increase in cell number by day 3) (NADF [7]): statistically significant decrease in proliferation
ability of Hic-5 knocked-down HTSF to contract collagen (HTSF [8]): fully rescued the ability of HTSF to contract collagen
